Legend:
[1] = tested on: isolated guinea pig tracheal smooth muscles; test: Relaxant effect on histamine-induced contraction of isolated guinea pig tracheal smooth muscles; conditions: Cavia porcellus; histamine 10^-5 mol/L contraction, relaxation as % of maximum response to papaverine 10^-4 mol/L; read-out: IC50(μmol/L), concentration required to 50% relaxation
Method: Guinea pigs were exsanguinated and the trachea was immediately isolated and cut into 2 to 3 cartilage ring segments to prepare tracheal ring preparations. The tracheal rings were suspended in 10 mL of Tyrode's solution bubbled with a gaseous mixture of 95% O2+5% CO2 at 37° C. The composition of the Tyrode's solution (mM) was as follows: NaCl 136.9, KCl 2.7, CaCl2 1.8, MgCl2 1.0, NaH2PO4 0.4, NaHCO3 11.9 and Gucose 5.6. The contractile response was measured by an isometric transducer (UM-203, KISHIMOTO) and recorded on a recorder ([…] SERVOCORDER SR6221). After about 1 hour incubation with 1.5 g of resting tention, histamine (10^−5 mol/L) was added to induce the contractile response. After confirming the response, the preparations were washed with Tyrode's solution (10 mL×3). Then indomethacin (10^−5 mol/L) was applied and the preparations were equilibrated for at least 30 min under 1.5 g tension. Subsequently, histamine (10^−5 mol/L) was applied. After the contraction reached a steady state, each compound was added in a cumulative manner (10^−8 mol/L-3×10^−5 mol/L). Each compound was prepared as a 10^−1 mol/L solution in DMSO, which was diluted with distilled water for use. After addition of test compounds, papaverine (10^−4 mol/L) was added to determine the maximum relaxation of the preparation. Relaxant response of test compounds were expressed as a percentage of the maximum response to papaverine. IC50 was defined as a concentration of the compound required to 50% relaxation. DMSO was used as a control.

PDE4Bcat = molecular target: T1, PDE4Bcat (Homo sapiens, UniProt Q07343); test: Inhibition of phosphodiesterase activity, [3H]-cAMP hydrolysis, recombinant PDE4Bcat; assay type: biochemical; conditions: cAMP 2 μmol/L, read-out: IC50(μmol/L) PDE4
T1 construct: catalytic domain (indicated as “cat,” hereinafter), PDE4Bcat; made in house; host or cells: Sf9 insect cells (baculovirus, Bac-to-Bac)
T1 sequence (Q07343 330-659 limits assumed): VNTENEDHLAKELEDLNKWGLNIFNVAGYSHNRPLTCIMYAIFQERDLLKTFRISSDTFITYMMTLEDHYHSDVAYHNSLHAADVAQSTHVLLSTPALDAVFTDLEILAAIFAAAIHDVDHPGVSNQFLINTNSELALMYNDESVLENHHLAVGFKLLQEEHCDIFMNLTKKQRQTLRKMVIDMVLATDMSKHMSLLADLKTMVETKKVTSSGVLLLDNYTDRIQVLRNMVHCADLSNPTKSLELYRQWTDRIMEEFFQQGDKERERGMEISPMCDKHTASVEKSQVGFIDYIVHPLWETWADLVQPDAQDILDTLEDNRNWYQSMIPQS
Method: (§1) RT-PCR was performed to isolate cDNA fragments of PDE3A catalytic domain (indicated as “cat,” hereinafter), PDE4Bcat, PDE5Acat and PDE10A1 from human RNA. Using Gateway system (Invitrogen) and Bac-to-Bac (registered trademark) Baculovirus Expression system (Invitrogen), the isolated cDNA fragments were transfected into Sf9 insect cells for expression of the PDE proteins. The recombinant PDE3Acat, PDE4Bcat, PDE5Acat and PDE10A1 proteins were isolated from culture supernatant or cell extracts of Sf9 cells expressed high levels of these proteins by ion-exchange chromatography and used for the following experiments.
(§2) 4 mmol/L solution of each test compound was serially diluted 4-fold with 15% DMSO solution to prepare the solutions with concentrations of 15 nmol/L to 4 mmol/L (final concentrations=1.5 nmol/L-400 μmol/L). 10 μL of each test compound solution was added to each well of 96 plate with 10 μL of [^3H]-cAMP or [^3H]-cGMP solution, diluted with a buffer (40 mmol/L Tris-HCl (pH 7.4), 10 mmol/L MgCl2) to the concentration shown in Table 20 and 40 μL of each of the human recombinant PDE proteins in units shown in Table 20. The plate was incubated at 30° C. for 20 min, and then at 65° C. for 2 min. Subsequently, 25 μL of 1 mg/mL 5′-nucleotidase (Crotalus atrox venom, Sigma) was added to each well and the plate was incubated at 30° C. for 10 min. 200 μL of Dowex solution (300 mg/mL Dowex 1×8-400 (Sigma Aldrich), 33% ethanol) was then added to each well and the plate was shaken at 4° C. for 20 min. Subsequently, 200 μL of MicroScint 20 (Packard) was added to each well and the radioactivity of each sample was measured by a scintillation counter (Topcount, Packard) IC50 was calculated by GraphPad Prism v3.03 (GraphPad Software).

[2] = molecular target: T2, PDE3A catalytic domain (PDE3Acat) (Homo sapiens, UniProt Q14432); test: Inhibition of phosphodiesterase activity, [3H]-cAMP hydrolysis, recombinant PDE3Acat; assay type: biochemical; conditions: human recombinant PDE3Acat, cAMP 2 μmol/L; read-out: IC50(μmol/L) PDE3
T2 construct: cDNA fragments of PDE3A catalytic domain (indicated as “cat,” hereinafter); made in house; host or cells: Sf9 insect cells (baculovirus, Bac-to-Bac)
T2 sequence (Q14432 674-1093 limits assumed): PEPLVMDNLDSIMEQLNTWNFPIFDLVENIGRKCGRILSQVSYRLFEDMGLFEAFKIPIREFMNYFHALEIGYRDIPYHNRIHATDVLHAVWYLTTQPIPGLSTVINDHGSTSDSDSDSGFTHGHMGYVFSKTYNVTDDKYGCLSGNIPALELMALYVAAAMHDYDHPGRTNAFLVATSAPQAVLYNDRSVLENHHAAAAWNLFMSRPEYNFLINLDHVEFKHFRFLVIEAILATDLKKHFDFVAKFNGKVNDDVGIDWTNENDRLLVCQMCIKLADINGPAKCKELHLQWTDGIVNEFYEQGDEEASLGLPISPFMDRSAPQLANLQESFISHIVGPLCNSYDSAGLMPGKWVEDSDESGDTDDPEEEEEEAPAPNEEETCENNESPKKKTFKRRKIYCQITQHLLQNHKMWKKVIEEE
Method: as §1, §2

PDE10A1 = molecular target: T3, PDE10A1 (Homo sapiens, UniProt Q9Y233); test: Inhibition of phosphodiesterase activity, [3H]-cAMP hydrolysis, recombinant PDE10A1; assay type: biochemical; conditions: human recombinant PDE10A1, cAMP 0.2 μmol/L; read-out: IC50(μmol/L) PDE10
T3 construct: made in house; host or cells: Sf9 insect cells (baculovirus, Bac-to-Bac)
T3 sequence (Q9Y233 1-779 isoform Q9Y233-1): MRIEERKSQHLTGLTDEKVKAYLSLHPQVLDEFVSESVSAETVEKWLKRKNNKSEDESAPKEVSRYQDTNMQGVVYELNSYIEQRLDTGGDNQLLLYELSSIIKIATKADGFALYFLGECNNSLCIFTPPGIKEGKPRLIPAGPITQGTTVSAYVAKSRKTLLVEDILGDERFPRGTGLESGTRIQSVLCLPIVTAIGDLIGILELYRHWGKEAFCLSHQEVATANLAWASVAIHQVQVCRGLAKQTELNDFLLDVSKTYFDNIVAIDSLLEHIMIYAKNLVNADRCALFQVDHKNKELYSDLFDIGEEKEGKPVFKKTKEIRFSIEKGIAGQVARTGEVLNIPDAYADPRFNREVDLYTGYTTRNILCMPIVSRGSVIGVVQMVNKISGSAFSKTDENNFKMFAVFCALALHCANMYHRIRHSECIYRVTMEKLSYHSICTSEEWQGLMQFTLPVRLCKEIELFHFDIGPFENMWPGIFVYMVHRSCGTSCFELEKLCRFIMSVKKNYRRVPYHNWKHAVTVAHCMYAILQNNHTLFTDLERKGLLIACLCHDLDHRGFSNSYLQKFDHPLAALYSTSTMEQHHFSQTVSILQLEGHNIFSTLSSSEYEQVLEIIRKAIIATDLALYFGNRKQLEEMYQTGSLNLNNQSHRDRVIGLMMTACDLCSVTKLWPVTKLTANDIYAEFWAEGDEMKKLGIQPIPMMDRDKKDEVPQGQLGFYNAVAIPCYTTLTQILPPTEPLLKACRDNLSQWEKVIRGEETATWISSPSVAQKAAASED
Method: as §1, §2

PDE5Acat = PDE5Acat (Homo sapiens, UniProt O76074); test: Inhibition of phosphodiesterase activity, [3H]-cGMP hydrolysis, recombinant PDE5Acat; assay type: biochemical; conditions: cGMP 2 μmol/L, read-out: IC50(μmol/L) PDE5
Method: as §1, §2

[3] = tested on: histamine-induced bronchoconstriction; test: Histamine-induced bronchoconstriction in guinea pigs; assay type: in vivo, guinea pig; conditions: Cavia porcellus, iv, 0.5 min, 30 seconds after administration, histamine 12.5 μg/kg i.v.; for inhibition in vivo at 1 mg/kg: test compound 1 mg/kg i.v.
Method: Guinea pigs were anesthetized with pentobarbital (30 mg/kg, i.p.). A cannula for IV administeration, a cannula for collecting blood and measurement of blood pressure and a trachea cannula were inserted into the left exterior jugular vein, right interior carotid artery and trachea, respectively. The animals were placed under artificial respiration at 60 times/min and 10 mL/kg/stroke. The airflow through the branch of the tracheal cannula was measured by a bronchospasm transducer (Ugo-Basile) and recorded on a computer via Power Lab (ADInstruments Japan). The animals were immobilized with gallamine (10 mg/kg, i.v.), then administered histamine at 10-minute intervals (12.5 μg/kg, i.v.). […] To examine the inhibitory activity of test compound, the histamine-induced bronchoconstriction was measured after 30 seconds of drug administration. The bronchoconstriction was recorded as the change of the airflow: The results were shown by percentages of the maximum histamine-induced bronchoconstriction. Each test compound was prepared as a 10 mg/mL solution in DMSO. Gallamine was prepared as a 10 mg/mL solution in physiological saline. Histamine was prepared as a 1 mg/mL solution in physiological saline, which was diluted with physiological saline to 62.5 μg/mL for use.

Structure (SMILES) | melting point [°C] | IC50 [1] [µmol/L] | IC50 (PDE4Bcat) [µmol/L] | IC50 [2] [µmol/L] | IC50 (PDE10A1) [µmol/L] | IC50 (PDE5Acat) [µmol/L] | inhibition in vivo at 1 mg/kg [3] [%] | inhibition in vivo at 0.1 mg/kg ([3]; values in brackets: test compound 0.1 mg/kg, i.v.) [%]
CCc1cc2c(-c3n[nH]c(=O)cc3C)cccn2n1 [Example 305] | 229 to 231 |  |  |  |  |  |  | 
CCc1cc2c(C3=NNC(=O)CC3C)cccn2n1 (stereo not shown) [Example 201] | 231 to 233 | 0.93 | > 10 | 1 to 10 | 1 to 10 | > 10 | ≥ 90 | 
CCc1cc2c(C3=NNC(=O)CC3C)cc(Cl)cn2n1 (stereo not shown) [Example 311, 6-(6-chloro-2-ethyl-pyrazolo[1,5-a]pyridine-4-yl)-5-methyl-4,5-dihydro-3-(2H)-pyridazinone] | 172 to 174 | 2 |  |  |  |  |  | 
CCc1cc2c(-c3ccc(=O)[nH]n3)cccn2n1 [Example 304] |  | 0.89 | > 10 | 1 to 10 | > 10 | > 10 | ≥ 90 | 
COc1ccc(C2=NNC(=O)CC2C)c2cc(C(F)(F)F)nn12 (stereo not shown) [205(211), 6-(7-methoxy-2-trifluoromethyl-pyrazolo[1,5-a]pyridine-4-yl)-4,5-dihydro-5-methyl-3-(2H)-pyridazinone] |  | 0.3 | < 1 | 1 to 10 | 1 to 10 | > 10 |  | ≥ 90

Source: patent US7763617B2, “Pyrazolopyridine-4-yl pyridazinone derivatives and addition salts thereof, and PDE inhibitors comprising the same derivatives or salts as active ingredient” (Kyorin Pharmaceutical Co., Ltd., priority 2005, dated 2010)
